{"source": "paper PMC8092876", "about": "“A Leucyl-tRNA Synthetase Inhibitor with Broad-Spectrum Antimycobacterial Activity” (Antimicrobial Agents and Chemotherapy, 2021)", "key": {"M. chimaera CCUG 50989T": {"tested_on": "M. chimaera CCUG 50989T", "assay": "MIC assay in 96-well plate format", "assay_type": "cell-based", "conditions": "CCUG50989T, culture collection reference strain"}, "[1]": {"tested_on": "M. abscessus subsp. massiliense M111", "assay": "MIC assay in 96-well plate format", "assay_type": "cell-based", "conditions": "Mycobacteroides abscessus; M. abscessus subsp. massiliense M111, clinical isolate"}, "[2]": {"tested_on": "M. abscessus subsp. abscessus M337", "assay": "MIC assay in 96-well plate format", "assay_type": "cell-based", "conditions": "Mycobacteroides abscessus; M. abscessus subsp. abscessus M337, clinical isolate"}, "[3]": {"tested_on": "M. abscessus subsp. abscessus K21", "assay": "M. abscessus mouse infection model", "assay_type": "in vivo", "conditions": "NOD SCID mice, intranasal infection, 10 mg/kg orally once daily for 10 days, day 11", "method": "In vivo efficacy determinations were carried out as described previously, using 8-week-old female NOD.CB17-Prkdc^scid/NCrCrl (NOD SCID) mice (Charles River Laboratories) and the M. abscessus subsp. abscessus K21 strain ([38]). Briefly, anesthetized animals were infected by intranasal delivery of ∼10^6 CFU of M. abscessus subsp. abscessus K21. Acute infection was achieved within 1 day. Drugs or the vehicle control were administered to NOD SCID mice once daily for 10 consecutive days by oral gavage, starting from 1 day postinfection. Clarithromycin was formulated in 0.4% methyl cellulose-sterile water and administered at a dose of 250 mg/kg. EC/11770 was formulated in 0.4% methyl cellulose-sterile water and administered at 10 mg/kg. All mice were euthanized 24 h after the last dose (11 days postinfection), and their lungs and spleen were aseptically removed prior to homogenization. The bacterial load in these organs was determined by plating serial dilutions of the organ homogenates onto Middlebrook 7H11 agar (BD Difco) supplemented with 0.2% (vol/vol) glycerol and 10% (vol/vol) oleic acid-albumin-dextrose-catalase (OADC). The agar plates were incubated for 5 days at 37°C prior to counting of colonies. […]"}, "[4]": {"tested_on": "M. abscessus subsp. bolletii M506", "assay": "MIC assay in 96-well plate format", "assay_type": "cell-based", "conditions": "Mycobacteroides abscessus; M. abscessus subsp. bolletii M506, clinical isolate"}, "[5]": {"assay": "AMP (artificial membrane permeability) assay", "assay_type": "in vitro ADME", "conditions": "PAMPA, pH 7.4", "method": "An 8% L-α-phosphatidylcholine (EPC) in 1% cholesterol decane solution and a 1.8% EPC in cholesterol decane solution were prepared. The lipid solution was then aliquoted into 4 ml capped vials, sealed with parafilm, and stored in a −20°C freezer. The lipid solution was then transferred from 4 ml vial into a 96-well half area plate (130 μl/well) for daily assay usage. An additional 50 mM phosphate buffer with 0.5% encapsin (pH 7.4) was prepared. The assay was run by the Biomek FX and Biomek software. The assay procedure is written under the Biomek software. For one batch assay, it can test two 96-well sample plates with at least one standard on each sample plate. The total assay time was about 4 h. A total of 3.5 μl of lipid solution was added to the filler plate and shaken for 12 s, 250 μl of buffer was added to the donor side, and 100 μl of buffer was added to the receiver side. The assay plate was shaken for 45 min before adding the compounds. The test compounds (2.5 μl) were added to the donor side. The assay was run as replicates: assay plates 1 and 2 tested sample plate 1, and assay plates 3 and 4 tested sample plate 2. The assay plates were then incubated and shaken for 3 h at room temperature. […] Compound concentration was measured by HPLC at different time points."}, "M. avium 11": {"tested_on": "M. avium 11", "assay": "MIC assay in 96-well plate format", "assay_type": "cell-based, M. avium subsp. hominissuis", "conditions": "Mycobacterium avium, 96 h; M. avium 11, 7H9, 4 days; read-out: MIC"}, "[6]": {"tested_on": "M. abscessus Bamboo RM4 (LeuS T327R)", "assay": "microbe, parasite or virus in culture", "assay_type": "cell-based", "conditions": "Mycobacteroides abscessus"}, "[7]": {"assay": "Mouse pharmacokinetics, intravenous administration", "assay_type": "in vivo", "method": "For pharmacokinetic studies, CD-1 male mice (22 to 25 g) were used for intravenous route and C57BL/6 female mice (18 to 20 g) were used for oral route. All animal studies were ethically reviewed and carried out in accordance with European Directive 2010/63/EU and the GSK policy on the care, welfare, and treatment of animals.\nEC/11770 was administered by intravenous route at 1 mg/kg single dose in saline and by oral gavage at 1 mg/kg and 10 mg/kg single doses in 1% methyl cellulose (1% MC). Aliquots of 20 μl of blood were taken from the lateral tail vein by puncture from each mouse (n = 3 per route and dose) at 5, 15, and 30 min 1, 2, 4, 6, 8, and 24 h postdose for intravenous route and at 15, 30, and 45 min 1, 2, 4, 6, 8, and 24 h postdose for oral route. The blood aliquots were mixed with 40 μl of water and stored at −80°C prior to analysis. The samples were processed by protein precipitation: aliquots of 20 μl were mixed with acetonitrile/methanol (80:20 vol/vol) and then filtered in 0.45 μm well-plates (hydrophobic polytetrafluorethylene [PTFE], Millipore). The filtrates were analyzed by UPLC-MS/MS for the establishment of compound concentration. The ultraperformance liquid chromatography (UPLC)-MS/MS system included a UPLC Acquity (Waters) and an API4000 mass spec. (AB Sciex). A volume of 7.5 μl of sample was injected into the system, with an UPLC solvent gradient of 2 min and with a positive multiple reaction monitoring (MRM) mass detection mode.\nPharmacokinetic analysis was performed by noncompartmental data analysis (NCA) with Phoenix WinNonlin 6.3 (Pharsight, Certara L.P), and supplementary analysis was performed with GraphPad Prism 6 (GraphPad Software, Inc.)."}, "[8]": {"tested_on": "M. abscessus subsp. abscessus M404", "assay": "MIC assay in 96-well plate format", "assay_type": "cell-based", "conditions": "Mycobacteroides abscessus; M. abscessus subsp. abscessus M404, clinical isolate"}}, "data": [{"smiles": "CC(C)(O)COc1ccc(Br)c2c1B(O)O[C@@H]2CN", "note": "[EC/11770]", "values": [{"measurement": "MIC", "setting": "M. chimaera CCUG 50989T", "value": 1.7, "unit": "µM"}, {"measurement": "MIC", "setting": "[1]", "value": 0.95, "unit": "µM"}, {"measurement": "MIC", "setting": "[2]", "value": 0.5, "unit": "µM"}, {"measurement": "reduction in lung CFU", "setting": "[3]", "value": 1.5, "unit": "log"}, {"measurement": "MIC", "setting": "[4]", "value": 0.48, "unit": "µM"}, {"measurement": "Papp at 3 h", "setting": "[5]", "value": 27.5, "unit": "×10⁻⁶ cm/s"}, {"measurement": "MIC", "setting": "M. avium 11", "value": 4, "unit": "µM"}, {"measurement": "MIC", "setting": "[6]", "value": "> 100", "unit": "µM"}, {"measurement": "half-life", "setting": "[7]; male, CD-1, whole blood, mouse, intravenous 1 mg/kg, average (SD)", "value": 5.3, "unit": "h"}, {"measurement": "Vd", "setting": "[7]; male, CD-1, whole blood, mouse, intravenous 1 mg/kg, average (SD), read-out: Vss", "value": 2.4, "unit": "L/kg"}, {"measurement": "AUC(0-inf)", "setting": "[7]; male, CD-1, mouse, intravenous 1 mg/kg, whole blood, average (SD)", "value": 3340, "unit": "ng·h/mL"}, {"measurement": "in vivo clearance as share of liver blood flow in mice", "setting": "[7]; mouse, intravenous 1 mg/kg, liver blood flow 90 to 126 ml/min/kg", "value": "approximately 5%"}, {"measurement": "clearance", "setting": "[7]; whole blood, mouse (CD-1 male), intravenous 1 mg/kg in saline, average (SD), read-out: In vivo CL", "value": 5, "unit": "mL/min/kg"}, {"measurement": "MIC", "setting": "[8]", "value": 0.52, "unit": "µM"}]}]}
